Measured values taken from patent publication US10363257B2 (ZENITH EPIGENETICS LTD., priority 2013, dated 2019).

Columns and labels:
[1] = system: c-myc; test: Inhibition of c-myc expression (mRNA, real-time PCR) in MV4-11 cells; format: cell-based; conditions: Human AML MV4-11 cells, 3 h, cMYC mRNA
Procedure, shortened: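 MV4-11 cells treated 3 h at 37° C with increasing compound concentrations or 0.1% DMSO, in triplicate. cMYC mRNA quantified by one-step TaqMan real-time PCR, Ct normalized to internal control (Cyclophilin primers used), fold expression relative to control.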

[2] = system: hIL-6 mRNA; test: Inhibition of hIL-6 mRNA transcription in LPS-stimulated U937 cells; format: cell-based; conditions: Homo sapiens, U-937; PMA-differentiated U937 cells, 1 h pretreatment, 1 ug/mL LPS stimulation, 3 h; read-out: IL-6 activity (Inhibition of hIL-6 mRNA Transcription)
Description: In this example, hIL-6 mRNA in tissue culture cells was quantitated to measure the transcriptional inhibition of hIL-6 when treated with a compound of the invention.
Human leukemic monocyte lymphoma U937 cells (CRL-1593.2) were plated at a density of 3.2×10^4 cells per well in a 96-well plate in 100 μL RPMI-1640 containing 10% FBS and penicillin/streptomycin, and differentiated into macrophages for 3 days in 60 ng/mL PMA ([…]) at 37° C. in 5% CO2 prior to the addition of compound. The cells were pretreated for 1 h with increasing concentrations of test compound in 0.1% DMSO prior to stimulation with 1 ug/mL lipopolysaccharide from Escherichia coli. Triplicate wells were used for each concentration. The cells were incubated at 37° C., 5% CO2 for 3 h before the cells were harvested. At time of harvest, media was removed and cells were rinsed in 200 μL PBS. Cells were harvested using the mRNA Catcher PLUS kit according to manufacturer's instructions. The eluted mRNA was then used in a one-step quantitative real-time PCR reaction using components of the RNA UltraSense™ One-Step Kit (Life Technologies) together with Applied Biosystems TaqMan® primer-probes for hIL-6 and Cyclophilin. Real-time PCR plates were run on a VIa™ 7 real time PCR machine (Applied Biosystems), data was analyzed, normalizing the Ct values for hIL-6 to an internal control, prior to determining the fold expression of each sample, relative to the control.

[3] = target: T1, Brd4 bromodomain 1 (BRD4(1)) (Homo sapiens, UniProt O60885); test: Inhibition of tetra-acetylated histone H4 binding to Brd4 bromodomain 1 (TR-FRET); conditions: tetra-acetylated histone H4 peptide, first bromodomain of Brd4
T1 construct: made in house; host or cells: E. coli BL21(DE3)
Procedure, shortened: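 His-tagged BRD4(1) from E. coli (200 nM) with biotinylated tetra-acetylated H4 peptide (25-50 nM), Eu-cryptate streptavidin and XL665 anti-His, in HEPES pH 7.4/phosphate/KF buffer, 0.2% DMSO. After 2 h at room temperature, TR-FRET 665/620 nm ratio read; IC50 from dose-response curves.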

[4] = system: human AML MV-4-11 cells; test: Inhibition of cell proliferation in MV4-11 cells (CellTiter Aqueous One); format: cell-based; conditions: for IC50: MV4-11, 72 h; for Cell Proliferation activity: 72 h
Procedure, shortened: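 Exponentially growing MV-4-11 cells (5×10^4/well) were treated immediately with two-fold dilutions of compound from 30 μM to 0.2 μM, in triplicate, for 72 h at 37° C, 5% CO2. Viability was measured by MTS absorbance at 490 nm after 3–4 h. Proliferation relative to DMSO after blank correction gave IC50.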

Row | SMILES | IC50 [1] | IC50 [2] | IC50 [3] | IC50 [4] | Cell Proliferation activity [4]
1 | COc1ccc(Cn2c(C)nc3ncc(-c4c(C)noc4C)cc32)cc1 [Example Compound 62, 4-(1-(4-methoxybenzyl)-2-methyl-1H-imidazo[4,5-b]pyridin-6-yl)-3,5-dimethylisoxazole] | 300 to 3000 nM | 300 to 3000 nM | ≤ 300 nM | 300 to 3000 nM | –
2 | Cc1noc(C)c1-c1ccc2ccn(Cc3ccc(F)cc3)c2n1 [Example Compound 49, 4-(1-(4-fluorobenzyl)-1H-pyrrolo[2,3-b]pyridin-6-yl)-3,5-dimethylisoxazole] | 3000 to 30000 nM | 3000 to 30000 nM | 3000 to 30000 nM | 3000 to 30000 nM | –
3 | Cc1noc(C)c1-c1cc(N)c2nc(C)n(CC3CC3)c2c1 [compound 75, 1-(cyclopropylmethyl)-6-(3,5-dimethylisoxazol-4-yl)-2-methyl-1H-benzo[d]imidazol-4-amine] | 300 to 3000 nM | 300 to 3000 nM | ≤ 300 nM | 300 to 3000 nM | –
4 | CCNc1nc2c(NC(C)=O)cc(-c3c(C)noc3C)cc2n1Cc1ccccc1 [compound 119, N-(1-benzyl-6-(3,5-dimethylisoxazol-4-yl)-2-(ethylamino)-1H-benzo[d]imidazol-4-yl)acetamide] | ≤ 300 nM | ≤ 300 nM | ≤ 300 nM | ≤ 300 nM | –
5 | Cc1noc(C)c1-c1cc(N)c2nc(C)n(C(C)c3ccccc3)c2c1 (stereo not shown) [compound 96, 6-(3,5-dimethylisoxazol-4-yl)-2-methyl-1-(1-phenylethyl)-1H-benzo[d]imidazol-4-amine] | ≤ 300 nM | ≤ 300 nM | ≤ 300 nM | ≤ 300 nM | –
6 | Cc1noc(C)c1-c1cnc2nc(C)n(Cc3ccc(Cl)c(Cl)c3)c2c1 [compound 95, 4-(1-(3,4-dichlorobenzyl)-2-methyl-1H-imidazo[4,5-b]pyridin-6-yl)-3,5-dimethylisoxazole] | 300 to 3000 nM | 300 to 3000 nM | ≤ 300 nM | 300 to 3000 nM | –
7 | Cc1noc(C)c1-c1ccc2[nH]c(=O)n(Cc3ccccc3)c2n1 [Example Compound 2, 3-Benzyl-5-(3,5-dimethylisoxazol-4-yl)-1H-imidazo[4,5-b]pyridin-2(3H)-one] | 3000 to 30000 nM | 300 to 3000 nM | ≤ 300 nM | 300 to 3000 nM | –
8 | COc1cc(-c2c(C)noc2C)cc2c1nc(C)n2Cc1ccccc1 [Example Compound 66, 4-(1-benzyl-4-methoxy-2-methyl-1H-benzo[d]imidazol-6-yl)-3,5-dimethylisoxazole] | 300 to 3000 nM | 300 to 3000 nM | ≤ 300 nM | 300 to 3000 nM | –
9 | Cc1noc(C)c1-c1cnc2nc(C)n(Cc3ccc(Cl)cc3)c2c1 [compound 83, 4-(1-(4-chlorobenzyl)-2-methyl-1H-imidazo[4,5-b]pyridin-6-yl)-3,5-dimethylisoxazole] | 300 to 3000 nM | 300 to 3000 nM | ≤ 300 nM | 300 to 3000 nM | –
10 | Cc1noc(C)c1-c1cc(N)c2nc(NC3CCOCC3)n(Cc3ccccc3)c2c1 [compound 109, 1-benzyl-6-(3,5-dimethylisoxazol-4-yl)-N2-(tetrahydro-2H-pyran-4-yl)-1H-benzo[d]imidazole-2,4-diamine] | ≤ 300 nM | ≤ 300 nM | ≤ 300 nM | ≤ 300 nM | –
11 | CNc1nc2ncc(-c3c(C)noc3C)cc2n1Cc1ccccc1 [compound 146, 1-benzyl-6-(3,5-dimethylisoxazol-4-yl)-N-methyl-1H-imidazo[4,5-b]pyridin-2-amine] | ≤ 300 nM | ≤ 300 nM | ≤ 300 nM | ≤ 300 nM | –
12 | Cc1noc(C)c1-c1cnc2nc(N3CCC3)n(Cc3ccccc3)c2c1 [compound 123, 4-(2-(azetidin-1-yl)-1-benzyl-1H-imidazo[4,5-b]pyridin-6-yl)-3,5-dimethylisoxazole] | ≤ 300 nM | ≤ 300 nM | ≤ 300 nM | 300 to 3000 nM | –
13 | Cc1noc(C)c1-c1cnc2nc(C)n(Cc3ccncc3)c2c1 [compound 74, 3,5-dimethyl-4-(2-methyl-1-(pyridin-4-ylmethyl)-1H-imidazo[4,5-b]pyridin-6-yl)isoxazole] | 3000 to 30000 nM | 300 to 3000 nM | 300 to 3000 nM | 3000 to 30000 nM | –
14 | Cc1ccc(Cn2c(C)nc3ncc(-c4c(C)noc4C)cc32)s1 [compound 76, 3,5-dimethyl-4-(2-methyl-1-((5-methylthiophen-2-yl)methyl)-1H-imidazo[4,5-b]pyridin-6-yl)isoxazole] | 300 to 3000 nM | 300 to 3000 nM | 300 to 3000 nM | 3000 to 30000 nM | –
15 | CNc1cc(-c2c(C)noc2C)cc2c1ncn2Cc1ccc(F)cc1 [Example Compound 28, 6-(3,5-dimethylisoxazol-4-yl)-1-(4-fluorobenzyl)-N-methyl-1H-benzo[d]imidazol-4-amine] | 300 to 3000 nM | 300 to 3000 nM | ≤ 300 nM | 300 to 3000 nM | –
16 | CNc1nc2c([N+](=O)[O-])cc(-c3c(C)noc3C)cc2n1Cc1ccccc1 [compound 149, 1-benzyl-6-(3,5-dimethylisoxazol-4-yl)-N-methyl-4-nitro-1H-benzo[d]imidazol-2-amine] | ≤ 300 nM | ≤ 300 nM | ≤ 300 nM | 300 to 3000 nM | –
17 | Cc1noc(C)c1-c1cc(NCc2ccccc2)c2ncn(Cc3ccccc3)c2c1 [Example Compound 9, N,1-Dibenzyl-6-(3,5-dimethylisoxazol-4-yl)-1H-benzo[d]imidazol-4-amine] | 3000 to 30000 nM | 3000 to 30000 nM | 3000 to 30000 nM | 3000 to 30000 nM | –
18 | Cc1noc(C)c1-c1cnc2nc(C)n(Cc3ccc(F)cc3)c2c1 [Example Compound 58, 4-(1-(4-fluorobenzyl)-2-methyl-1H-imidazo[4,5-b]pyridin-6-yl)-3,5-dimethylisoxazole] | 300 to 3000 nM | 300 to 3000 nM | ≤ 300 nM | 300 to 3000 nM | –
19 | Cc1noc(C)c1-c1cc(N)c2ccn(Cc3ccc(F)cc3)c2n1 [Example Compound 52, 6-(3,5-dimethylisoxazol-4-yl)-1-(4-fluorobenzyl)-1H-pyrrolo[2,3-b]pyridin-4-amine] | 3000 to 30000 nM | 300 to 3000 nM | 300 to 3000 nM | 300 to 3000 nM | –
20 | Cc1noc(C)c1-c1cnc2nc(C)n(Cc3ccc(C(N)=O)cc3)c2c1 [Example Compound 38, 4-((6-(3,5-dimethylisoxazol-4-yl)-2-methyl-1H-imidazo[4,5-b]pyridin-1-yl)methyl)benzamide] | 3000 to 30000 nM | 3000 to 30000 nM | ≤ 300 nM | – | Not active
21 | Cc1noc(C)c1-c1cc2c(c(C)nn2Cc2ccc(F)cc2)[n+]([O-])c1 [Example Compound 24, 6-(3,5-dimethylisoxazol-4-yl)-1-(4-fluorobenzyl)-3-methyl-1H-pyrazolo[4,3-b]pyridine-4-oxide] | 3000 to 30000 nM | 300 to 3000 nM | ≤ 300 nM | – | Not active
22 | Cc1noc(C)c1-c1cnc2c(C#N)cn(Cc3ccccc3)c2c1 [compound 88, 1-benzyl-6-(3,5-dimethylisoxazol-4-yl)-1H-pyrrolo[3,2-b]pyridine-3-carbonitrile] | 300 to 3000 nM | ≤ 300 nM | ≤ 300 nM | 300 to 3000 nM | –
23 | Cc1noc(C)c1-c1cc(N)c2nc(C)n([C@H](C)c3ccccc3)c2c1 [compound 144, (R)-6-(3,5-dimethylisoxazol-4-yl)-2-methyl-1-(1-phenylethyl)-1H-benzo[d]imidazol-4-amine] | ≤ 300 nM | ≤ 300 nM | ≤ 300 nM | ≤ 300 nM | –
24 | Cc1noc(C)c1-c1cc(N)c2[nH]c(=O)n(C(C)c3ccccc3)c2c1 (stereo not shown) [compound 115, 4-amino-6-(3,5-dimethylisoxazol-4-yl)-1-(1-phenylethyl)-1H-benzo[d]imidazol-2(3H)-one] | ≤ 300 nM | ≤ 300 nM | ≤ 300 nM | ≤ 300 nM | –
25 | CCNc1nc2ncc(-c3c(C)noc3C)cc2n1C(C)c1ccccc1 (stereo not shown) [compound 113, 6-(3,5-dimethylisoxazol-4-yl)-N-ethyl-1-(1-phenylethyl)-1H-imidazo[4,5-b]pyridin-2-amine] | ≤ 300 nM | ≤ 300 nM | ≤ 300 nM | ≤ 300 nM | –
